Measurements taken from patent publication US9493416B2, “N-methyl-4-benzylcarbamidopyridinium chloride and a process for its preparation” (Farmak International Holding GmbH, priority 2012, dated 2016).

Assay: Active ingredient release (dissolution) profile from solid gelatine capsules in pharmacopeial buffer solutions
Format: physicochemical
Conditions: for released faster than FAV00A-Io by: 370.6 mg capsules vs FAV00A-Io 500 mg capsules
Method: Results of comparative studies of active ingredient release profiles from a drug formulated as solid gelatine capsules using two salts of N-methyl-4-benzylcarbamidopyridine, namely the chloride and iodide salts labelled “FAV00A-Cl” and “FAV00A-Io” hereinafter.
In order to assess the FAV00A-Cl substance release rate from a finished medicinal product, studies of active ingredient release profiles were carried out for FAV00A-Cl 370.6 mg capsules, in 3 reference pharmacopeial buffer solutions with pH 1.2, 4.5, 6.8 and typical measurement conditions (1000 ml of 0.1M HCl; 100 rpm (basket); 1000 ml of acetate buffer solution pH 4.5; 100 rpm (basket); 1000 ml of phosphate buffer solution pH 6.8; 100 rpm (basket), respectively). Study results were compared against FAV00A-Io 500 mg capsules (with consideration of molecular weights of FAV00A-Cl and FAV00A-Io substances: the dosage of FAV00A-Cl substance 370.6 mg is equivalent to the dosage of FAV00A-Io substance 500 mg). The iodide salt FAV00A-Io used in the study was the α-crystalline form of amizon as described in applicant's co-pending patent applications WO 2011/158058 and WO 2011/157743.

released faster than FAV00A-Io by (0.1M HCl, 5-th minute): 40% | released faster than FAV00A-Io by (0.1M HCl, 10-th minute): 20% | Dissolution classification of the product (based on release in 15 min of more than 85%): rapidly dissolving | released faster than FAV00A-Io by (buffer solution with pH 4.5, 5-th minute): 25% | released faster than FAV00A-Io by (buffer solution with pH 4.5, 10-th minute): 10% | released faster than FAV00A-Io by (buffer solution with pH 6.8, 5-th minute): 25% | released faster than FAV00A-Io by (buffer solution with pH 6.8, 10-th minute): 15% | Release of substance from finished medicinal product in 15 min (in 15 min, 3 reference pharmacopoeial buffer solutions (pH 1.2, 4.5, 6.8)): more than 85%
Structure (SMILES): C[n+]1ccc(C(=O)NCc2ccccc2)cc1.[Cl-] [FAV00A-Cl, N-methyl-4-benzylcarbamidopyridinium chloride]
